Here are results for 4 compounds from patent US5149688A, “Methods, compounds, and compositions for immunosuppression” (priority 1990, dated 1992).

Read-outs that look alike come from different tables or passages of the source. Bounds are passed on as bounds.

In data set [1] the test system is adjuvant arthritis (AA).
Data set [2] deals with lymphocytes. As to the kind of experiment: Secondary mixed lymphocyte reaction (2'-MLR) assay. It is filed as cell-based. The settings on record: read-out: concentration inhibiting 50% of the stimulatory activity, 2'-MLR. An excerpt:
In addition to the above immunosuppressive assays, a secondary mixed lymphocyte reaction assay was applied to ABA. The secondary mixed lymphocyte assays differs from the primary mixed lymphocyte reaction assays in that they employ many more primed responder cells that are responsive to the primary stimulating cells. The presence of such responsive cells is a reflection of immunological memory in an ongoing immunological response. […] Generally between 10% to 50% of the original input cells are recovered in viable condition. These cells are then used in the secondary mixed lymphocyte reaction.
The procedure for carrying out a secondary mixed lymphocyte reaction is described by T. Meoen, Immunological Methods, Eds I. Lefkoivits and B. Pernis, […], New York (1979). It will be appreciated that described therein is a method for carrying out secondary lymphocyte reactions using mouse cells, however such methods are generally applicable to performing secondary mixed lymphocyte reactions using human cells with modifications that are well known to those skilled in the art.

Data set [3] has as its system lymphocytes. As to the kind of experiment: Primary mixed lymphocyte response (MLR) assay. The settings on record: read-out: concentration giving 50% inhibition, primary MLR assay. Type of data set: cell-based. An excerpt: (§1) The following studies sought to characterize the immunosuppressive activities of ABA, both as to in vitro and in vivo efficacy in experimental systems. It is important to point out that the results obtained from the in vitro systems are generally predictive of the in vivo immunosuppressive properties of the ABA. More specifically, the assays used here are mixed lymphocyte response (MLR) and phytohemagglutinin A (PHA) assays which are valuable for identifying immune suppressive molecules in vitro, and that the results obtained therefrom are generally predictive of their in vivo effectiveness. The assays are further described below.
The in vitro mixed lymphocyte assay is presently employed in the clinical setting as an indicator of histocompatibility, and is premised on the transformation of resting genetically dissimilar lymphocytes into cells which synthesize DNA and undergo proliferation.
(§2) Thus, it will be appreciated as to both the mixed lymphocyte and PHA assay that they are valuable for identifying immune suppressive molecules in vitro, and that the results obtained therefrom are generally predictive of their in vivo effectiveness.

Data set [4] relates to lymphocytes. As to the kind of experiment: Phytohemagglutinin A (PHA) assay. It is filed as cell-based. Particulars: Lymphocyte, read-out: concentration giving 50% inhibition, PHA assay.
Description: as §1
A second assay widely used to study immune responsiveness is mitogenic stimulation of lymphocytes with mitogenic substances of plant origin. The most widely used plant molecule is PHA.
as §2

In data set [5] the test system is adjuvant arthritis (AA). As to the kind of experiment: Long term suppression of AA using combined SA and MTX treatment (Example 6). It is filed as in vivo, male Lewis rats. Particulars: SA 300 mg/kg/day IP or MTX 0.9 mg/kg/week IP, day 5 to 15. The method, then: On day 0, three groups of 10 male Lewis rats were injected with M.Tb in oil suspension, as in previous examples. […] The animals were evaluated for arthritis development.

Data set [6] has as its system established adjuvant arthritis (AA). As to the kind of experiment: Comparative efficacy of SA and MTX in the treatment of established arthritis (Example 4). Type of data set: in vivo, male Lewis rats. On the procedure:
Three groups of 15 male Lewis rats were injected with M.Tb on day 0 in the left hindpaw. […] On day 16, subcutaneous pumps were placed in the SA and control groups. SA was administered at 300 mg/kg/day by CI. The control group received 2.5M NaCl. […] Treatment was continued to day 30.

In data set [7] the test system is delta-aminolevulinic dehydratase. Particulars: cited from earlier work.
Data set [8] can be described thus: Plasma levels of SA during CI therapy (HPLC). It is filed as in vivo, male Lewis rats. The settings on record: 400 mg/kg/day CI; for concentration at 216 h: rat, plasma, sc, 400 mg/kg/day.
In data set [9] the test system is adjuvant arthritis (AA). In words: Prophylactic effect of SA on adjuvant arthritis in rats (Example 1). Type of data set: in vivo, male Lewis rats.
In data set [10] the test system is adjuvant arthritis (AA). In words: Comparative efficacy of MTX and SA in suppressing onset of AA (Example 3). It is filed as in vivo, Lewis rats. On the procedure: On the same day, pumps were surgically implanted into the first two groups. The first group received SA at 300 mg/kg/day through the pumps. The second group, which served as the control, received continuous infusion of 2.5M NaCl through the pumps.

Data set [11] can be described thus: Body weight / toxicity of rats under prophylactic SA treatment. The settings on record: SA level necessary for suppression of AA.
Description: (§3) Isotonic and isovolumic saline was used as the control in this subcutaneous infusion treatment regimen (hereinafter referred to as SQ, or continuous infusion, CI, regimen). The treatment was started on day -4 prior to M.Tb injection (day 0). The pumps were calculated to infuse until day 10. Ten rats were used in each group.
The test system of data set [12] is adjuvant arthritis (AA). As to the kind of experiment: Therapeutic effect of SA on AA (Example 2). It is filed as in vivo, rats. The method, then: The following experiments examined the therapeutic effect of SA on the progression of AA. In these studies, the treatments with SA began at day 5 after the rats had been immunized with M.Tb in their left footpads. At this time, the activation of lymphoid cells with M.Tb was well established and the appearance of mononuclear cells at the joint has been reported as the earliest histologic findings. Billingham, 1983, Pharma. Theory, 21: 389.
325 mg/kg/day of SA was administered by subcutaneous pump infusion from day 5 until day 19. The control animals received isotonic and isovolumic NaCl control.
A parallel group of animals were treated with daily intraperitoneal injections of 800 mg/kg/day of SA (FIGS. 6 and 7). This was done to compare the relative efficacy of continuous infusion versus a single daily intraperitoneal injection.

The conditions of data set [13]: rat, in vivo.
Description: as §3
Another data set has as its system allogeneic tumors. The settings on record: rats; cited from earlier work.
For data set [14], the system named is adjuvant arthritis (AA). In words: Therapeutic treatment of AA with SA and/or MTX, summary of set of experiments run in triplicate.
Description: In the SA and MTX combined treatment regimen, the SA was administered in an amount ranging from 150-300 mg/kg/day. The MTX was administered three times a week in IP injections, at a total of 0.9 mg/kg/week.
Data set [15] deals with rheumatoid arthritis (RA). Particulars: human, in vivo; cited from earlier work.
Another data set concerns dihydrofolate reductase. The settings on record: cited from earlier work.
The mark [16] stands for this setting: SA 300 mg/kg/day CI, day 16 to 30.

For the compound `CC(=O)CC(=O)c1ccccc1C(=O)O` [ABA, 2-acetoacetyl benzoic acid], in the data set with adjuvant arthritis (AA) [1] (ABA 400 mg/kg/day IP), the “footpad swelling at day 19, 4 days after cessation” value was “decreased footpad swelling”. Further, in the data set on adjuvant arthritis (AA) [1] (ABA 400 mg/kg/day IP vs SA 800 mg/kg/day IP), the “suppression of AA, ABA compared with SA” value was “ABA is more efficacious than SA in suppressing AA”. Also, the “footpad swelling, clinical disease scores and incidence of arthritis during administration” value in the data set with adjuvant arthritis (AA) [1] (ABA 400 mg/kg/day IP, FIGS. 14 and 15) is “AA was suppressed; the footpad swelling, clinical disease scores and incidence of arthritis were all lowered”. Further, the “Arthritis Incidence” value amounted to 100% with adjuvant arthritis (AA) [1] (ABA 100 in ABA/PEG formulation, day 12); 100% in the data set on adjuvant arthritis (AA) [1] (ABA 100 in ABA/PEG formulation, day 19); 100% in the data set on adjuvant arthritis (AA) [1] (ABA 200 in ABA/PEG formulation, day 12); 100% with adjuvant arthritis (AA) [1] (ABA 200 in ABA/PEG formulation, day 19); 40% in the data set on adjuvant arthritis (AA) [1] (ABA 400 in ABA/PEG formulation, daily IP day 5 to 15, day 12, control 100%); 100% with adjuvant arthritis (AA) [1] (ABA 400 in ABA/PEG formulation, day 19 (4 days after cessation)). Further, the suppression of arthritis entry in the data set with adjuvant arthritis (AA) [1] (ABA 200 and 100 mg/kg/day IP) is recorded as “did not show observable suppression of arthritis”. In addition, the “suppression of AA at 400 mg/kg/day, post-immunization regimen” value with adjuvant arthritis (AA) [1] (ABA given IP) is recorded as “ABA suppressed AA at 400 mg/kg/day when given IP in a post-immunization regimen”. The IC50 in the data set on lymphocytes [2] is about 1600 µM; in the data set on lymphocytes [3], 870 ± 280 µM; in the data set on lymphocytes [4] it was 91 ± 60 µM.

For `CC(=O)CC(=O)CCC(=O)O` [SA, Succinylacetone], in the data set with adjuvant arthritis (AA) [1] (SA 800 mg/kg/day IP), the “suppression of the disease by SA using this treatment protocol” value is “only transient suppression of the disease”. In addition, the “suppression of AA, single drugs IP” value in the data set on adjuvant arthritis (AA) [5] was “AA was not suppressed”. Besides, in [6] (SA 300 mg/kg/day CI or MTX […] IP, day 16 to 30, FIG. 10), the “right footpad diameter, progression from day 23 to 63” value was “did not increase significantly”. Also, in [6] (setting [16]), the “persistence of lack of further swelling after cessation of treatment” value is given as “up to 33 days” and the “progression / regression of established arthritis” value is “SA prevented progression of AA, but because the disease had already established itself at the onset of treatment, SA did not cause regression of the arthritis”. For the same compound, the “mean right hindpaw thickness” value in data set [6] (day 23, SA 300 mg/kg/day CI or MTX […] IP from day 16, control 321, normal about 170 U) is 258 U. In addition, the “inhibition of delta-aminolevulinic dehydratase” value in data set [7] is reported as “potent inhibitor”. The concentration in data set [8] (blood collected on day 9, individual rats SA-C1, SA-C2, SA-C3, 12960 min, 12960 min, read-out: SA Level (plasma)) was determined as 50 µM. Moreover, the concentration at 216 h in data set [8] (blood collected on day 9, individual rats SA-C1, SA-C2, SA-C3, read-out: SA Level (plasma)) was found to be 44 µM. Moreover, the concentration at 216 h in data set [8] (day 9, HPLC, read-out: plasma SA levels associated with clinical suppression of arthritis) lay in the range of 40 to 50 µM. The “arthritis severity, dose dependence” value with adjuvant arthritis (AA) [9] (SA 400 and 200 mg/kg/day CI, day -4 to day 10) is “inhibited arthritis severity in a dose dependent manner”. In the data set with adjuvant arthritis (AA) [9] (SA 400 and 200 mg/kg/day, SQ ALZET pumps, day -4 to day 10, FIGS. 1 and 2), the “right footpad swelling and arthritis in non-injected extremities” value is reported as “suppression of clinical arthritis”. Further, in the data set with adjuvant arthritis (AA) [9] (SA treated cohort, CI), the “histologic arthritis of the joints” value is on record as “found to suppress histologic arthritis”. Also, in the data set on adjuvant arthritis (AA) [10] (SA 300 mg/kg/day CI), the “suppression of AA based on disease incidence” value is on record as “maximal suppression of AA based on the disease incidence”. In addition, in the data set with adjuvant arthritis (AA) [10] (SA 300 mg/kg/day CI vs MTX […] and 3 mg/kg/week), the “footpad swelling, SA compared with MTX” value is “trend towards greater inhibition”. Also, the incidence of arthritis result in the data set with adjuvant arthritis (AA) [10] (SA 300 mg/kg/day CI, day 14, FIG. 9) is “no incidence of arthritis on day 14”. The footpad swelling suppression result with adjuvant arthritis (AA) [10] (SA 300 mg/kg/day CI, MTX 2.4 and 3 mg/kg/week IP, FIG. 8) was “significant suppression”. The toxicity result in data set [11] was “non-toxic to the animals at the level necessary for suppression of AA”. In the data set on adjuvant arthritis (AA) [12] (325 mg/kg/day CI vs 800 mg/kg/day IP), the “continuous infusion versus daily IP injection” value is “continuous infusion results in greater suppression at a lower dose than does daily IP injection”. Moreover, in the data set with adjuvant arthritis (AA) [12] (SA 325 mg/kg/day SQ pump infusion, day 5 to 19, FIGS. 4 and 5), the “right hindpaw swelling and clinical severity of arthritis” value is “Right hindpaw swelling and clinical severity of arthritis was suppressed”. Also, the arthritis during treatment result with adjuvant arthritis (AA) [12] (SA 325 mg/kg/day continuous infusion) was “completely suppressed during treatment”. Also, the “day until which the clinical scores did not increase” value in the data set with adjuvant arthritis (AA) [12] (SA 325 mg/kg/day continuous infusion, day 5 to 19) was determined as 36 days. Further, the “increase in clinical scores relative to saline treated animals” value with adjuvant arthritis (AA) [12] (SA 325 mg/kg/day continuous infusion, from day 36) is listed as “less than half of the saline treated animals”. For the same compound, in the data set on adjuvant arthritis (AA) [12] (SA 800 mg/kg/day IP, FIG. 7), the “suppression of AA beyond termination of treatment” value is “did not suppress the AA beyond the termination of the treatment regimen”. Moreover, in the data set with adjuvant arthritis (AA) [12] (SA 800 mg/kg/day, daily IP), the “day by which groups reached equivalent severity to the controls” value is at most 33 days and the “footpad swelling after termination of treatment” value is listed as “an attenuated increase in footpad swelling was observed, however, the swelling was less than that found in the controls”. Further, the “footpad swelling during treatment” value in the data set on adjuvant arthritis (AA) [12] (SA 800 mg/kg/day, daily IP, FIG. 6) is “suppression of footpad swelling until the treatment stopped”. The “clinical severity of arthritis” value in the data set on adjuvant arthritis (AA) [12] (SA 800 mg/kg/day, daily IP, FIG. 7) was “delayed the clinical severity of the arthritis”. For the same compound, the “suppression of arthritis, both regimens” value in the data set with adjuvant arthritis (AA) [12] (continuous infusion and daily IP injections) is on record as “resulted in suppression of arthritis”. Besides, in [13], the body weight entry was “allowed weight gain”. For the same compound, the “tumorigenicity of allogeneic tumors” value in the data set with allogeneic tumors was “enhance tumorigenicity of allogeneic tumors in rats”. Moreover, the “CI versus IP regimen at suppressing the AA” value with adjuvant arthritis (AA) [14] (300 to 400 mg/kg/day CI vs 800 mg/kg/day IP) is listed as “The CI regimen was more effective than the IP regimen at suppressing the AA”. Further, the “suppression of AA without death or weight loss” value in the data set with adjuvant arthritis (AA) [14] (SA 300 to 400 mg/kg/day CI or 800 mg/kg/day IP) is “suppressed AA without causing death or weight loss in the rats”. Besides, in the data set with adjuvant arthritis (AA) [14] (daily intraperitoneal injection), the “SA dose at which AA was suppressed without death or weight loss, IP” value came to 800 mg/kg/day.

Take `CC(C)(S)[C@@H](N)C(=O)O` [D-penicillamine]: in data set [15], the toxic side effects result is “causes bone marrow depression and renal toxicity”.

For the compound `CN(Cc1cnc2nc(N)nc(N)c2n1)c1ccc(C(=O)N[C@@H](CCC(=O)O)C(=O)O)cc1` [MTX, Methotrexate], in the data set with dihydrofolate reductase, the “inhibition of dihydrofolate reductase” value is “inhibits dihydrofolate reductase”.
